Measurements published in patent US20230277554A1, “COMPOSITION CONTAINING NICKEL-SUPEROXIDE DISMUTASE AND THE LIKE USEFUL FOR HAIRCARE” (priority 2020, published 2023).

Test system: Cutibacterium acnes
Test: Cutibacterium acnes growth inhibition
Type: cell-based
Description: Cutibacterium acnes is a troublesome anaerobic pathogen. TUN-828® has the function of forming oxygen internally, so we tried to explore whether such a mechanism can inhibit the growth of Cutibacterium acnes and thereby promote the formation of Staphylococcus epidermidis thus form a micro-ecological environment beneficial to the scalp. […] In 24 hours, TUN-828® can inhibit more than 93% Cutibacterium acnes and more than 99% in 48 hr.

Nickel Bis (Hydroxy Diphenyl MethyIPyrrolidino Methy) Pyridinediy1 t-Butylisocyano Perchlorate [TUN-828®]
inhibition of Cutibacterium acnes (24 hours): more than 93%
inhibition of Cutibacterium acnes (48 hr): more than 99%
